Experimental data as given in patent US6794376B2, “Methods and compositions for enhancing diffusion of therapeutic agents through tissue” (William Beaumont Hospital, priority 2000, dated 2004).

How the values were obtained:
[1] = tested on: Spheroids made from MCF-7 human breast carcinoma cells; test: Doxorubicin penetration and morphology in MCF-7 spheroids treated with permeabilizer, with or without hyperthermia; assay type: cell-based
Method: Spheroids made from MCF-7 human breast carcinoma cells were treated with 3.0 micrograms per milliliter doxorubicin for six hours at various temperatures and under various permeabilizer conditions. Doxorubicin is an anti-neoplastic drug frequently used in chemotherapy procedures. When the spheroids were treated for six hours at 37.0° C. in the absence of permeabilizer, the drug penetrated only six cell layers into the spheroids. […] The spheroids in this experiment also underwent a characteristic change in morphology. […] These changes in spheroid morphology and drug penetration were never observed in control spheroids that received no permeabilizer treatment. Furthermore, these changes were never observed in spheroids that received sham treatment, which included exposure to all components used in the permeabilizer emulsion except the permeabilizer.
In this example, spheroids were treated as in example 1 with the addition of hyperthermia as an additional variable in the experiment. Hyperthermia in this example involved raising the temperature of the spheroids to approximately 40° C. […] Hyperthermia treatment alone had no effect on penetration of doxorubicin or upon the intercellular space.

[2] = tested on: spheroids made from DU-145 human prostate carcinoma cells; test: Adenovirus vector (beta-galactosidase reporter) penetration into DU-145 spheroids treated with permeabilizer, with or without hyperthermia; assay type: cell-based
Method: The spheroids made from DU-145 human prostate carcinoma cells were grown to an average diameter of 500 micrometers and then suspended in culture medium containing 0.1% to 3% cyclopentadecanolide plus adenovirus vectors that had beta-galactosidase as a reporter transgene. Once a viral vector entered a cell, beta-galactosidase was expressed constitutively under control of the human CMV promoter. The experimental protocol called for the spheroids to be incubated for 48 to 72 hours following treatment to permit transgene expression. It should be noted that a reporter gene was utilized in this Example, as well as in Examples 4 and 5, only to facilitate determination of the extent of vector diffusion. Any other polynucleotide could be used in this system, including suicide genes and genes encoding therapeutic proteins.
Within 6 to 24 hours following permeabilizer treatment, depending upon the permeabilizer concentration used, the cells within the spheroid regions where the intercellular space was increased became detached from the spheroid.

[3] = tested on: Du-145 tumors grafted onto mice; test: Adenovirus vector diffusion (X-gal staining) in Du-145 xenograft tumors injected with permeabilizer, with or without hyperthermia; assay type: in vivo; conditions: single injection of 30 microliters, tumor retrieved at 72 hours
Method: Du-145 tumors grafted onto mice were injected with cyclopentadecanolide and adenovirus vector that contained the beta-galactosidase transgene, all in PBS. The tumor was retrieved 72 hours after treatment, cryosectioned, and stained with X-gal to visualize beta-galactosidase expression.
In this example, tumors were heated to 41.0° C. using an unfocused ultrasonic transducer prior to treatment with permeabilizer and virus vector. When hyperthermia was established, the tumor was given a single injection of 30 microliters containing 6% cyclopertadecanolide and 2×10^10 adenovirus vectors that contained the beta-galactosidase transgene, all in PBS. Following the injection, the hyperthermia was continued for an additional 45 minutes. That is, the elevated temperature was maintained for 45 minutes after injection. The tumor was retrieved 72 hours following the injection, cryosectioned, and stained with X-gal to visualize beta-galactosidase expression.
The voids were filled with light amber colored, gelatinous material, indicating break-down of the tissue cell membranes.

[4] = Highest permeabilizer concentration that gives a stable emulsion; assay type: physicochemical
Method: As indicated above, prior to delivery to the tissue of interest, a working emulsion of the permeabilizer is prepared, preferably from one of the stocks. The working emulsion preferably comprises one or more permeabilizers in a buffer. The concentration of the permeabilizer will depend on the permeabilizer used in the procedure being conducted. Because ethylene brassylate and civetone are liquids, they can be administered to a tissue at concentrations up to 100%. Preferably, the working emulsion contains ethylene brassylate, civetone, or a combination of both at a concentration of between approximately 0.1 and 20% (volume/volume). As indicated above, Cyclopentadecanone and cyclopentadecanolide, however, are solids. The highest concentration of cyclopentadecanone or cyclopentadecanolide that can be made into a stable emulsion is approximately 25% (weight/volume). As a result, the working emulsion preferably contains cyclopentadecanone or cyclopentadecanolide at a concentration of between approximately 0.1 and 25%. Particularly preferred is a working solution that contains cyclopentadecanone, cyclopentadecanolide, or a combination of both, at a concentration of between approximately 0.1 and 7%.

[5] = 6% permeabilizer and 2×10^10 adenovirus vectors, hyperthermia 41.0° C. kept for 45 minutes after injection

COc1cccc2c1C(=O)c1c(O)c3c(c(O)c1C2=O)C[C@@](O)(C(=O)CO)C[C@@H]3O[C@H]1C[C@H](N)[C@H](O)[C@H](C)O1 [doxorubicin, reference compound]
depth of doxorubicin penetration into the spheroids ([1]; 3.0 micrograms per milliliter doxorubicin, six hours, 37.0° C., absence of permeabilizer): six
effect of hyperthermia treatment alone on penetration of doxorubicin ([1]; hyperthermia approximately 40° C., no permeabilizer): no effect

O=C1CCCCCCCCCCCCCCO1 [cyclopentadecanolide]
transgene expression in cells that detached from the spheroids ([2]; 0.1% to 3% cyclopentadecanolide plus adenovirus vectors with beta-galactosidase reporter transgene): exhibit beta-galactosidase activity
cell detachment from the spheroid when hyperthermia was included ([2]; 0.1% to 3% cyclopentadecanolide plus hyperthermia): grossly exacerbated
X-gal staining from beta-galactosidase expression in tumor sections [3, 5]: pervaded the remainder of the sections
tumor section morphology (tissue destruction) [3, 5]: large voids in the center of the sections
X-gal staining from beta-galactosidase expression in tumor sections ([3]; 12% cyclopentadecanolide and 2×10^10 adenovirus vectors, no hyperthermia): pervasive throughout the section
highest concentration that can be made into a stable emulsion [4]: approximately 25 % (weight/volume)

O=C1CCCCCCCCCCCCCC1 [cyclopentadecanone]
spheroid morphology / intercellular space ([1]; 0.6% cyclopentadecanone, 37.0° C., six hours): increase in intercellular space
degree to which doxorubicin penetrated the spheroids ([1]; 3.0 micrograms per milliliter doxorubicin, six hours, culture medium containing 0.6% cyclopentadecanone, 37.0° C.): essentially tripled
permeabilizer activity with concurrent hyperthermia ([1]; as example 1 plus hyperthermia, approximately 40° C.): marked potentiation of permeabilizer activity
doxorubicin penetration with permeabilizer and hyperthermia ([1]; as example 1 plus hyperthermia, approximately 40° C., doxorubicin fluorescence): penetrated all recesses of the spheroids
intercellular space with concurrent hyperthermia ([1]; as example 1 plus hyperthermia, approximately 40° C., intact and sectioned spheroids): greater increase in intercellular space
highest concentration that can be made into a stable emulsion [4]: approximately 25 % (weight/volume)
